Laboratory results taken from US20240109864A1, “SUBSTITUTED PYRAZOLYL PIPERIDINE CARBOXYLIC ACIDS” (BAYER AKTIENGESELLSCHAFT, priority 2020, published 2024).
Structures can show the parent of a compound that is named as a salt.

Target: T1, recombinant guanylate cyclase reporter cell line (Rattus norvegicus, UniProt P20595)
T1 construct: expressed in transfected cells
T1 sequence (P20595 1-619): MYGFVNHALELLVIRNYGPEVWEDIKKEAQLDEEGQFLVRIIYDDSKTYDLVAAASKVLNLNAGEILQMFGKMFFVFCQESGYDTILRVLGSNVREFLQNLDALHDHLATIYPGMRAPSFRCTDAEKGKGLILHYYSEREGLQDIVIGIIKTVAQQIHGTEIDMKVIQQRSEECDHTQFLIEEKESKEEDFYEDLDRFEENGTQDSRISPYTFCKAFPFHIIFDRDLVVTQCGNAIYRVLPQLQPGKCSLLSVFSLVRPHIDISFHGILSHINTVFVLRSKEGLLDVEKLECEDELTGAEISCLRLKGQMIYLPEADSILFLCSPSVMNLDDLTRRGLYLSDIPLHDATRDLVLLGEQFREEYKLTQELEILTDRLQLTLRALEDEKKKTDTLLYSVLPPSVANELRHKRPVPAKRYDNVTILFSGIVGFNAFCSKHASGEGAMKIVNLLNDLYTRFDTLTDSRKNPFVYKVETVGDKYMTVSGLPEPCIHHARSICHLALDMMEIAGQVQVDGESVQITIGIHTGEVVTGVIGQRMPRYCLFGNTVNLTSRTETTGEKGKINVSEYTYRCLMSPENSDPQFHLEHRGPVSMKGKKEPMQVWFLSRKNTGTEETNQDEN
T1 sequence (P19686 1-690 partner): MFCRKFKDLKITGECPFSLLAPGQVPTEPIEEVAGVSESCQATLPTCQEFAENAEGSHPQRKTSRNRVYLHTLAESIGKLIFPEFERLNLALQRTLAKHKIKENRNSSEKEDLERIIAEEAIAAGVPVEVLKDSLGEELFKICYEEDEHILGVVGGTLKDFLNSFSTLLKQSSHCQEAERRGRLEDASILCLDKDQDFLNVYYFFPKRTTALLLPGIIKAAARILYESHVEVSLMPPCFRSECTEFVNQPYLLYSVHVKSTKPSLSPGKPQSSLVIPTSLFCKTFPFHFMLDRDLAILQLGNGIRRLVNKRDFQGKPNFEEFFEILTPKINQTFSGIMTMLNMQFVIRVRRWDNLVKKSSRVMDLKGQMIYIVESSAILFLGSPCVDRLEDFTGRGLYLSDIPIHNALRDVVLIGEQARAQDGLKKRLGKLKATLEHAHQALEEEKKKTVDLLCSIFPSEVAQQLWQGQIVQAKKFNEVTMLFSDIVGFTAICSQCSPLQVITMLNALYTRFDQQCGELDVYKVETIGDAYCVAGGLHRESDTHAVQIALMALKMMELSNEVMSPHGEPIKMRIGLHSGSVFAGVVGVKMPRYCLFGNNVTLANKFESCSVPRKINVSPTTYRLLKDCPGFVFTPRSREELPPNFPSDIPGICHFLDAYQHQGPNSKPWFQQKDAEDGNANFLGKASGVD
Assay: Effect on a recombinant guanylate cyclase reporter cell line
Format: cell-based
Settings: in some cases mean values from individual determinations; for MEC: MEC = minimum effective concentration; for EC50: half maximal effective concentration
Method: The cellular activity of the compounds according to the invention was determined using a recombinant guanylate cyclase reporter cell line, as described in F. Wunder et al., Anal. Biochem. 339, 104-112 (2005).

SMILES | MEC | EC50 | MEC (hydrochloride)
O=C(O)c1cnn(C2CCCN(c3cc(Cl)ccc3-c3ccc(N4CCN(CC(F)(F)F)CC4)cc3)C2)c1C(F)(F)F (single isomer, unassigned) [Example 16, 1-[1-[5-Chloro-2-[4-[4-(2,2,2-trifluoroethyl)piperazin-1-yl]phenyl]phenyl]-3-piperidyl]-5-(trifluoromethyl)pyrazole-4-carboxylic acid] | 3.0 nM | 14.4 nM | –
CCN1CCN(c2ccc(-c3ccc(Cl)cc3N3CCCC(n4ncc(C(=O)O)c4C(F)(F)F)C3)c(F)c2)CC1 (single isomer, unassigned) [Example 68, 1-[1-[5-Chloro-2-[4-(4-ethylpiperazin-1-yl)-2-fluoro-phenyl]phenyl]-3-piperidyl]-5-(trifluoromethyl)pyrazole-4-carboxylic acid hydrochloride] | 3.0 nM | 36.5 nM | –
CCC(=O)N1CCC(c2ccc(-c3ccc(Cl)cc3N3CCCC(n4ncc(C(=O)O)c4C(F)(F)F)C3)cc2)CC1 (single isomer, unassigned) [Example 83, 1-[1-[5-Chloro-2-[4-(1-propanoyl-4-piperidyl)phenyl]phenyl]-3-piperidyl]-5-(trifluoromethyl)pyrazole-4-carboxylic acid hydrochloride] | 0.3 nM | 3.9 nM | –
O=C(O)c1cnn(C2CCCN(c3cc(Cl)ccc3-c3ccc(N4CCN(CC5CC5)CC4)cc3F)C2)c1C(F)(F)F (single isomer, unassigned) [Example 69, 1-[1-[5-Chloro-2-[4-[4-(cyclopropylmethyl)piperazin-1-yl]-2-fluoro-phenyl]phenyl]-3-piperidyl]-5-(trifluoromethyl)pyrazole-4-carboxylic acid hydrochloride] | 3.0 nM | 13.8 nM | –
CC(C)N1CCN(c2ccc(-c3ccc(Cl)cc3N3CCCC(n4ncc(C(=O)O)c4C(F)(F)F)C3)cc2)CC1 (single isomer, unassigned) [Example 6, 1-[1-[5-Chloro-2-[4-(4-isopropylpiperazin-1-yl)phenyl]phenyl]-3-piperidyl]-5-(trifluoromethyl)pyrazole-4-carboxylic acid hydrochloride] | 10.0 nM | 88 nM | –
O=C(O)c1cnn(C2CCCN(c3cc(Cl)ccc3-c3ccc(C4CCN(C(=O)C5CC5)CC4)cc3)C2)c1C(F)(F)F (single isomer, unassigned) [Example 85, 1-[1-[5-Chloro-2-[4-[1-(cyclopropanecarbonyl)-4-piperidyl]phenyl]phenyl]-3-piperidyl]-5-(trifluoromethyl)pyrazole-4-carboxylic acid hydrochloride] | – | 1.1 nM | <0.3 nM
O=C(O)c1cnn(C2CCCN(c3cc(Cl)ccc3-c3ccc(N4CCN(C(=O)[C@@H]5C[C@@H]5F)CC4)cc3)C2)c1C(F)(F)F (single isomer, unassigned) [Example 46] | 3.0 nM | 14.5 nM | –
O=C(O)c1cnn(C2CCCN(c3cc(Cl)ccc3-c3ccc(N4CCN(C[C@H]5C[C@H]5F)CC4)cc3)C2)c1C(F)(F)F (single isomer, unassigned) [Example 29, hydrochloride] | 0.3 nM | 6.9 nM | –
O=C(O)c1cnn(C2CCCN(c3cc(Cl)ccc3-c3ccc(N4CCN(CC5CCC5)CC4)cc3)C2)c1C(F)(F)F (single isomer, unassigned) [Example 19, 1-[1-[5-Chloro-2-[4-[4-(cyclobutylmethyl)piperazin-1-yl]phenyl]phenyl]-3-piperidyl]-5-(trifluoromethyl)pyrazole-4-carboxylic acid hydrochloride] | 3.0 nM | 26.5 nM | –
CC(C)COC(=O)N1CCN(c2ccc(-c3ccc(Cl)cc3N3CCCC(n4ncc(C(=O)O)c4C(F)(F)F)C3)cc2)CC1 (single isomer, unassigned) [Example 59, 1-[1-[5-Chloro-2-[4-(4-isobutoxycarbonylpiperazin-1-yl)phenyl]phenyl]-3-piperidyl]-5-(trifluoromethyl)pyrazole-4-carboxylic acid] | 10.0 nM | 40.5 nM | –
O=C(O)c1cnn(C2CCCN(c3cc(Cl)ccc3-c3ccc(N4CCN(CC5CC5(F)F)CC4)cc3)C2)c1C(F)(F)F (mixture of isomers) [Example 31, 1-[1-[5-Chloro-2-[4-[4-[[2,2-difluorocyclopropyl]methyl]piperazin-1-yl]phenyl]phenyl]-3-piperidyl]-5-(trifluoromethyl)pyrazole-4-carboxylic acid hydrochloride] | 1.0 nM | 3.8 nM | –
CC(C)CN1CCc2cc(-c3ccc(Cl)cc3N3CCCC(n4ncc(C(=O)O)c4C(F)(F)F)C3)ccc2C1 (single isomer, unassigned) [Example 81, 1-[1-[5-Chloro-2-(2-isobutyl-3,4-dihydro-1H-isoquinolin-6-yl)phenyl]-3-piperidyl]-5-(trifluoromethyl)pyrazole-4-carboxylic acid hydrochloride] | 30.0 nM | 43 nM | –
O=C(O)c1cnn(C2CCCN(c3cc(Cl)ccc3-c3ccc(N4CCN(CC5(F)CCC5)CC4)cc3)C2)c1C(F)(F)F (single isomer, unassigned) [Example 23, 1-[1-[5-Chloro-2-[4-[4-[(1-fluorocyclobutyl)methyl]piperazin-1-yl]phenyl]phenyl]-3-piperidyl]-5-(trifluoromethyl)pyrazole-4-carboxylic acid hydrochloride] | 3.0 nM | 27.5 nM | –
O=C(O)c1cnn(C2CCCN(c3cc(Cl)ccc3-c3ccc(N4CCN(C(=O)C5CC5)CC4)cc3)C2)c1C(F)(F)F (single isomer, unassigned) [Example 42, 1-[1-[5-Chloro-2-[4-[4-(cyclopropanecarbonyl)piperazin-1-yl]phenyl]phenyl]-3-piperidyl]-5-(trifluoromethyl)pyrazole-4-carboxylic acid] | 1.0 nM | 4.2 nM | –
O=C(O)c1cnn(C2CCCN(c3cc(Cl)ccc3-c3ccc(N4CCN(CC5(C(F)(F)F)CC5)CC4)cc3)C2)c1C(F)(F)F (single isomer, unassigned) [Example 34, 1-[1-[5-Chloro-2-[4-[4-[[1-(trifluoromethyl)cyclopropyl]methyl]piperazin-1-yl]phenyl]phenyl]-3-piperidyl]-5-(trifluoromethyl)pyrazole-4-carboxylic acid hydrochloride] | 10.0 nM | 40.5 nM | –
O=C(O)c1cnn(C2CCCN(c3cc(Cl)ccc3-c3ccc(N4CCN(C(=O)C5CC(F)(F)C5)CC4)cc3)C2)c1C(F)(F)F (single isomer, unassigned) [Example 50, 1-[1-[5-Chloro-2-[4-[4-(3,3-difluorocyclobutanecarbonyl)piperazin-1-yl]phenyl]phenyl]-3-piperidyl]-5-(trifluoromethyl)pyrazole-4-carboxylic acid] | 10.0 nM | 47.5 nM | –
O=C(O)c1cnn(C2CCCN(c3cc(Cl)ccc3-c3ccc(N4CCN(CC56CC(F)(C5)C6)CC4)cc3)C2)c1C(F)(F)F (single isomer, unassigned) [Example 24, 1-[1-[5-Chloro-2-[4-[4-[(3-fluoro-1-bicyclo[1.1.1]pentanyl)methyl]piperazin-1-yl]phenyl]phenyl]-3-piperidyl]-5-(trifluoromethyl)pyrazole-4-carboxylic acid hydrochloride] | 3.0 nM | 12.7 nM | –
O=C(O)c1cnn(C2CCCN(c3cc(Cl)ccc3-c3ccc(N4CCN(C(=O)[C@H]5CC5(F)F)CC4)cc3)C2)c1C(F)(F)F (single isomer, unassigned) [Example 48, 1-[1-[5-Chloro-2-[4-[4-[2,2-difluorocyclopropanecarbonyl]piperazin-1-yl]phenyl]phenyl]-3-piperidyl]-5-(trifluoromethyl)pyrazole-4-carboxylic acid] | 3.0 nM | 10.6 nM | –
